Molecular target: T1, LOXL2 (Homo sapiens, UniProt Q9Y4K0)
T1 sequence (Q9Y4K0 26-774): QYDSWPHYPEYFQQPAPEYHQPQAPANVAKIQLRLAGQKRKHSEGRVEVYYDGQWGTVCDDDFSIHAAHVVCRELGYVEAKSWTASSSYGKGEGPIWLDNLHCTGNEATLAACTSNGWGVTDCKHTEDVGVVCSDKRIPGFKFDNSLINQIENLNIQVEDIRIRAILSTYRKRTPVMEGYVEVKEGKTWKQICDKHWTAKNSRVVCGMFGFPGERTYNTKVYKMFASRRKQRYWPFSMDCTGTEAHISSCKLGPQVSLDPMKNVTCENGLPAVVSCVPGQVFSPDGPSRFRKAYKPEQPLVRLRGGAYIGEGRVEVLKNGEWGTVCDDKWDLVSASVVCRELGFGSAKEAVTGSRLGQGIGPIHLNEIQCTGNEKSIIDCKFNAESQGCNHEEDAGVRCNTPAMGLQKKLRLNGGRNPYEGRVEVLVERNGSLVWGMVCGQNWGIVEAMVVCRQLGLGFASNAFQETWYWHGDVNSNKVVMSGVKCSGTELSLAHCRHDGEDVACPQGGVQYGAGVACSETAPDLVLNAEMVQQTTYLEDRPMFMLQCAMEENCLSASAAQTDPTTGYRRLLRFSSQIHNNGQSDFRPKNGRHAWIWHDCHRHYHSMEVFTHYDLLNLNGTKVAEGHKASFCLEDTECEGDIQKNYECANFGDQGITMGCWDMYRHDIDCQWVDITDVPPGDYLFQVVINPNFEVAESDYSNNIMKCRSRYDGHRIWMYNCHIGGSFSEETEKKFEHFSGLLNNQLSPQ
Experiment: Standard Amplex Red assay, rh LOXL2 (putrescine substrate)
Format: biochemical
Settings: for IC50: Amplex Red assay, 30 min pre-incubation
Source text: FIGURE 1 Characteristics of the activity‐based probe (ABP) PXS‐5878. (A) Chemical structure of PXS‐5878, with functional subunits denoted with different colours. The fluoroallylamine moiety (blue) was designed to interact with the lysine tyrosylquinone (LTQ) co‐factor within the lysyl oxidase active sites. An extended linker (green) was incorporated to provide optimal separation between the reactive functional group and the tag, avoiding unfavourable steric hindrance. Biotin was selected as a tag, with higher sensitivity found to be achieved using a double tag (red), resulting in PXS‐5878 as the preferred ABP. (B) Concentration‐dependent inhibition of recombinant human (rh) lysyl oxidase‐like 1‐4 (LOXL1‐4) and native bovine LOX in a standard Amplex Red assay with 30 min pre‐incubation; n = 3–4 independent experiments, standard error of mean (SEM). Native bovine LOX was used as a surrogate for human LOX as both enzymes have similar pharmacology for fluoroallylamines.[2], [9] (C) Irreversible nature of PXS‐5878 enzyme inhibition confirmed using a jump dilution assay. Enzyme (rh LOXL1, rh LOXL2 or LOXL3) was pre‐incubated with 10 × IC50 of PXS‐5878 for 30 min, then diluted 100x and remaining activity assessed by Amplex Red assay. […] Each value is an average of three experiments. (D) Schematic representation of the assay development to detect lysyl oxidase activity by PXS‐5878 using a direct enzyme‐linked assay with lysyl oxidases as the target analyte. HRP: horseradish peroxidase; TMB: 3,3′,5,5′‐tetramethylbenzidine, a chromogenic substrate. After target analyte is bound to the plate, PXS‐5878 was incubated for 60 min in the presence or absence of a pan‐LOX inhibitor (β‐aminopropionitrile, [BAPN]) and streptavidin‐HRP is then added. After incubation the plate is washed and TMB added to measure the amount of bound ABP/streptavidin/HRP. This leads to a high signal. Application of BAPN to block the enzymatic site prevents PXS‐5878 from binding, and it is consequently washed off the plate, resulting in a low signal. In the final Simoa® assay, the enzyme is bound by the antibody to the bead. (E) Detection of enzymatically active lysyl oxidases by PXS‐5878. rh LOXL1, LOXL2 or LOXL3 were immobilised on the surface of a microtiter plate and processed as described in (D). Optical density in the absence of the pan‐LOX inhibitor BAPN (high signal) was divided by the value in the presence of BAPN (low signal). Low signal was 1.81 ± 0.77 (n = 8) times larger than blank controls. Two independent replicates were performed (total n = 4–5 for each enzyme).
Small molecule, selective LOXL2 (PXS‐5338, Figure S3) or pan‐LOX inhibitors compete with substrate but ultimately occupy the enzymatic pocket, irrespective of whether the substrate is small (e.g., putrescine) or large (e.g., collagen). […] Further studies with AB0023 were therefore limited to 300 nM.
FIGURE 2 Characteristics of PXS‐5338 and inhibition of lysyl oxidase‐like 2 (LOXL2) enzymatic activity in vitro and in vivo. (A) Chemical structure of PXS‐5338. […] (B) Tissue levels of PXS‐5338 measured 1 and 4 h after a single oral dose of 30 mg/kg in the rat. […] Average data from three different animals. (C) Concentration‐dependent inhibition of native human LOX and rh LOXL1‐4 in a standard Amplex Red assay with 30 min pre‐incubation; n ≥3 independent experiments, standard error of mean (SEM). (D) PXS‐5338 inhibits rh LOXL2 in a time‐dependent manner, with increasing potency observed upon longer incubation with the enzyme. […]

Row | Change of potency with increasing substrate (putrescine) concentration (substrate added simultaneously with inhibitor) | IC50 | Concentration at which full inhibition of rh LOXL2 is achieved (standard assay using putrescine or collagen as substrate) | Pre-incubation time after which inhibition of rh LOXL2 is complete (varying pre-incubation times, putrescine as substrate) | SMILES
1 | potency of PXS-5338 decreases | – | – | – | CC(C)c1c(Cc2ccc(S(C)(=O)=O)nc2)c2ncccc2n1C/C(F)=C/CN [PXS-5338]
2 | – | 203 nM | – | – | NC/C=C(\F)CS(=O)(=O)c1cccc(Cn2cc(-c3cc(OCCCc4cn(CCCCC[C@@H]5SC[C@@H]6NC(=O)N[C@@H]65)nn4)cc(OCCCc4cn(CCCCC[C@@H]5SC[C@@H]6NC(=O)N[C@@H]65)nn4)c3)nn2)c1 [PXS-5878]
3 | – | 35 nM | above 300 nM | 2 h | CC(C)c1c(Cc2ccc(S(C)(=O)=O)nc2)c2ncccc2n1C/C(F)=C/CN [PXS‐5338]

Reference: PMC8571951, “An activity‐based bioprobe differentiates a novel small molecule inhibitor from a LOXL2 antibody and provides renewed promise for anti‐fibrotic therapeutic strategies” (Clinical and Translational Medicine, 2021)
